Experiment [1] concerns split dopamine aptamer (aptamer1 + aptamer2) (DNA, aptamer) TTCGCAGGTGTGGAGTGACGTCG/CGACGCCAGTTTGAAGGTTCG
The experiment is described as follows: square wave voltammetry (amperometric aptasensor). The settings on record: 10 mM Tris; 0.5 μM aptamer2; highest concentration 50 μM.

For experiment [2] the test system is unchanged. Nature of the experiment: organic electrochemical transistor gate potential shift. The settings on record: 10 mM Tris; 0.5 μM aptamer2; highest concentration 10 μM; shift under 15 mV or reversed.
Experiment [3] shares this test system. Nature of the experiment: square wave voltammetry, Langmuir fit (amperometric aptasensor). The settings on record: 10 mM Tris; 0.5 μM aptamer2; aptamer1 on gold; apparent (transducer-dependent).
Experiment [4] has the same test system. The experiment is described as follows: organic electrochemical transistor gate potential shift, Langmuir fit. The settings on record: 10 mM Tris; 0.5 μM aptamer2; aptamer1 on gold gate; apparent (transducer-dependent).

Consider `NCCCC(=O)O`, for which the binding result in experiment [1] and in experiment [2] was “no” throughout.

Consider `O=C1O[C@H]([C@@H](O)CO)C(O)=C1O`, for which the binding entry in experiment [1] and in experiment [2] was “no” throughout.

`O=c1[nH]c(=O)c2[nH]c(=O)[nH]c2[nH]1`: the binding result in experiment [1] and in experiment [2] was “no” each time.

For the molecule `NCCc1ccc(O)c(O)c1`, the KD worked out at 5000 nM in experiment [3] and 0.007 nM in experiment [4].

As for `N[C@@H](CCC(=O)O)C(=O)O`, the binding entry in experiment [1] and in experiment [2] was “no” throughout.

Values taken from article PMC7321560 (2020).
